Assay results from patent publication US20230321104A1, “USE OF PYRIDO[1,2-A]PYRIMIDINONE COMPOUND IN TREATING PERIPHERAL T CELL LYMPHOMA” (CHIA TAI TIANQING PHARMACEUTICAL GROUP CO., LTD., priority 2020, published 2023).

Tested on: relapsed/refractory peripheral T-cell lymphoma (PTCL)
Test: Clinical trials on peripheral T-cell lymphoma
Type: in vivo, human
Details: for SPD (sum of products of maximum vertical diameters of multiple lesions): baseline 717 mm
Experimental: 2.1 Administration Regimen • Method of administration: orally administered once daily, 15 mg or 20 mg each time, with 21 consecutive days of administration as one cycle. • Drug: tablet of the compound of formula I, 5 mg or 20 mg.
2.2 Enrollment Criteria • 1) Histopathologically confirmed relapsed/refractory peripheral T-cell lymphoma (PTCL), including four subtypes: peripheral T-cell lymphoma, not otherwise specified (PTCL-NOS); angioimmunoblastic T-cell lymphoma (AITL); anaplastic large cell lymphoma (ALCL); and extranodal NK/T cell lymphoma (NKTCL), nasal type; • 2) Has previously received at least first-line systemic treatment regimen, had disease progression during or after the most recent treatment, or had no objective response after adequate treatment; • 3) At least one measurable target lesion present (evaluated according to the Lugano evaluation criteria, 2014 edition); • 4) Age ≥18 years; ECOG (PS) score: 0-2; expected survival time ≥3 months; • 5) Main organ functions in the screening phase meet the following criteria:
Criteria for Blood Routine Examination (No Growth Factor Used or No Blood Transfusion Conducted within 14 Days): • Absolute neutrophil count (ANC)≥1.0×10^9/L; • Lymphocyte count (LYM)≥0.5×10^9/L; • CD4+ T lymphocyte count≥0.2×10^9/L; • Platelet (PLT)≥75×10^9/L (for patients with lymphoma bone marrow infiltration, ≥50×10^9/L acceptable); • Hemoglobin (Hb)≥80 g/L;

[1] = patients with peripheral T-cell lymphoma, oral once daily 15 mg or 20 mg

For `COc1ncc(-c2ccc3ncc(OCCN(C)C)c(=O)n3c2)cc1NS(=O)(=O)c1ccc(F)cc1Cl` [compound of formula I], the “objective response rate (ORR)” value (6 enrolled patients with peripheral T-cell lymphoma (3/6), oral once daily 15 mg or 20 mg, 21-day cycle, Lugano 2014 criteria) was 50%, the “SPD (sum of products of maximum vertical diameters of multiple lesions)” value (Case 1, ALK negative anaplastic large cell lymphoma, 15 mg each day, after 2 cycles of medication) was 495 mm and the overall therapeutic effect (Case 1, ALK negative anaplastic large cell lymphoma, 15 mg each day, after 4 cycles) was “complete response (CR)”. The new lesion (Case 1, 15 mg each day, after 4 cycles) was “no new lesion was found”, the “SUVmax of the highest uptake lesion, the left parotid gland area (PET-CT)” value (Case 1, 15 mg each day, after 4 cycles of medication, baseline 7.0) was 1.5 and the “SPD (sum of products of maximum vertical diameters of multiple lesions)” value (Case 1, 15 mg each day, after 4 cycles of medication) was 409 mm. For the same compound, the therapeutic effect (Case 2, extranodal NK/T cell lymphoma, nasal type, 15 mg each day, after 2 cycles of treatment) was “partial response (PR)”, the “SPD of measurable target lesions (enhanced MRI)” value (Case 2, extranodal NK/T cell lymphoma, nasal type, 15 mg each day, after 2 cycles of treatment, before treatment 280 mm) was 117 mm and the new lesion (Case 2, 15 mg each day, after 2 cycles of treatment) was “no new lesion was found”. For the same compound, the “decrease of SPD” value (Case 2, 15 mg each day, after 2 cycles of treatment, versus 280 mm before treatment) was 58.2%, the safety in treatment [1] was “good safety” and the “therapeutic effect on peripheral T-cell lymphoma” value [1] was “good therapeutic effect”.
